Assay results reported in ChEMBL document CHEMBL2396528, “Synthesis of new conjugated coumarin-benzimidazole hybrids and their anticancer activity” (2013).
Active and inactive are the calls of the source. The calls are words filed in the database; no cut-off is given here.

Legend:
Format in all cases: functional
MDA-MB-468 = assay: Cytotoxicity against human MDA-MB-468 cells assessed as growth inhibition at 10 uM after 48 hrs by SRB assay relative to control; settings: MDA-MB-468, 48 h, read-out: GI
T47D = assay: Cytotoxicity against human T47D cells assessed as growth inhibition at 10 uM after 48 hrs by SRB assay relative to control; settings: read-out: GI
BT-549 = assay: Cytotoxicity against human BT549 cells assessed as growth inhibition at 10 uM after 48 hrs by SRB assay relative to control; settings: BT-549, 48 h, read-out: GI
Hs-578T = assay: Cytotoxicity against human Hs578T cells assessed as growth inhibition at 10 uM after 48 hrs by SRB assay relative to control
MDA-MB-231 = assay: Cytotoxicity against human MDA-MB-231 cells assessed as growth inhibition at 10 uM after 48 hrs by SRB assay relative to control; settings: MDA-MB-231, 48 h, read-out: GI
PC-3 = assay: Cytotoxicity against human PC3 cells assessed as growth inhibition at 10 uM after 48 hrs by SRB assay relative to control; settings: PC-3, 48 h, read-out: GI
UO-31 = assay: Cytotoxicity against human UO31 cells assessed as growth inhibition at 10 uM after 48 hrs by SRB assay relative to control; settings: UO-31, 48 h, read-out: GI
SN12C = assay: Cytotoxicity against human SN12C cells assessed as growth inhibition at 10 uM after 48 hrs by SRB assay relative to control; settings: read-out: GI
ACHN = assay: Cytotoxicity against human ACHN cells assessed as growth inhibition at 10 uM after 48 hrs by SRB assay relative to control; settings: read-out: GI
A498 = assay: Cytotoxicity against human A498 cells assessed as growth inhibition at 10 uM after 48 hrs by SRB assay relative to control
[1] = Cytotoxicity against human NCI-ADR-RES cells assessed as growth inhibition at 10 uM after 48 hrs by SRB assay relative to control; settings: read-out: GI
OVCAR-8 = assay: Cytotoxicity against human OVCAR8 cells assessed as growth inhibition at 10 uM after 48 hrs by SRB assay relative to control; settings: OVCAR-8, 48 h, read-out: GI
OVCAR-5 = assay: Cytotoxicity against human OVCAR5 cells assessed as growth inhibition at 10 uM after 48 hrs by SRB assay relative to control; settings: OVCAR-5, 48 h, read-out: GI
OVCAR-4 = assay: Cytotoxicity against human OVCAR4 cells assessed as growth inhibition at 10 uM after 48 hrs by SRB assay relative to control; settings: OVCAR-4, 48 h, read-out: GI
IGROV-1 = assay: Cytotoxicity against human IGROV1 cells assessed as growth inhibition at 10 uM after 48 hrs by SRB assay relative to control; settings: IGROV-1, 48 h, read-out: GI
OVCAR-3 = assay: Cytotoxicity against human OVCAR3 cells assessed as growth inhibition at 10 uM after 48 hrs by SRB assay relative to control; settings: OVCAR-3, 48 h, read-out: GI
UACC-62 = assay: Cytotoxicity against human UACC62 cells assessed as growth inhibition at 10 uM after 48 hrs by SRB assay relative to control; settings: UACC-62, 48 h, read-out: GI
UACC-257 = assay: Cytotoxicity against human UACC257 cells assessed as growth inhibition at 10 uM after 48 hrs by SRB assay relative to control; settings: UACC-257, 48 h, read-out: GI
SK-MEL-28 = assay: Cytotoxicity against human SK-MEL-28 cells assessed as growth inhibition at 10 uM after 48 hrs by SRB assay relative to control; settings: SK-MEL-28, 48 h, read-out: GI
M14 = assay: Cytotoxicity against human M14 cells assessed as growth inhibition at 10 uM after 48 hrs by SRB assay relative to control; settings: M14, 48 h, read-out: GI
SK-MEL-2 = assay: Cytotoxicity against human SK-MEL-2 cells assessed as growth inhibition at 10 uM after 48 hrs by SRB assay relative to control; settings: SK-MEL-2, 48 h, read-out: GI
Malme-3M = assay: Cytotoxicity against human MALME-3M cells assessed as growth inhibition at 10 uM after 48 hrs by SRB assay relative to control; settings: read-out: GI
SNB-75 = assay: Cytotoxicity against human SNB75 cells assessed as growth inhibition at 10 uM after 48 hrs by SRB assay relative to control; settings: SNB-75, 48 h, read-out: GI
SF-268 = assay: Cytotoxicity against human SF268 cells assessed as growth inhibition at 10 uM after 48 hrs by SRB assay relative to control; settings: SF-268, 48 h, read-out: GI
SW-620 = assay: Cytotoxicity against human SW620 cells assessed as growth inhibition at 10 uM after 48 hrs by SRB assay relative to control; settings: SW-620, 48 h, read-out: GI
HCT-15 = assay: Cytotoxicity against human HCT15 cells assessed as growth inhibition at 10 uM after 48 hrs by SRB assay relative to control; settings: HCT-15, 48 h, read-out: GI
KM12 = assay: Cytotoxicity against human KM12 cells assessed as growth inhibition at 10 uM after 48 hrs by SRB assay relative to control; settings: KM12, 48 h, read-out: GI
HCC 2998 = assay: Cytotoxicity against human HCC2998 cells assessed as growth inhibition at 10 uM after 48 hrs by SRB assay relative to control
NCI-H226 = assay: Cytotoxicity against human NCI-H226 cells assessed as growth inhibition at 10 uM after 48 hrs by SRB assay relative to control; settings: NCI-H226, 48 h, read-out: GI
HOP-62 = assay: Cytotoxicity against human HOP62 cells assessed as growth inhibition at 10 uM after 48 hrs by SRB assay relative to control; settings: HOP-62, 48 h, read-out: GI
HOP-92 = assay: Cytotoxicity against human HOP92 cells assessed as growth inhibition at 10 uM after 48 hrs by SRB assay relative to control; settings: HOP-92, 48 h, read-out: GI
MOLT-4 = assay: Cytotoxicity against human MOLT4 cells assessed as growth inhibition at 10 uM after 48 hrs by SRB assay relative to control; settings: MOLT-4, 48 h, read-out: GI
K562 = assay: Cytotoxicity against human K562 cells assessed as growth inhibition at 10 uM after 48 hrs by SRB assay relative to control; settings: K562, 48 h, read-out: GI
CCRF-CEM = assay: Cytotoxicity against human CCRF-CEM cells assessed as growth inhibition at 10 uM after 48 hrs by SRB assay relative to control; settings: read-out: GI
SR = assay: Cytotoxicity against human SR cells assessed as growth inhibition at 10 uM after 48 hrs by SRB assay relative to control; settings: read-out: GI

Row | SMILES | inhibition of growth at 10 µM (T47D) [%] | inhibition of growth at 10 µM (BT-549) [%] | inhibition of growth at 10 µM (MDA-MB-231) [%] | inhibition of growth at 10 µM (PC-3) [%] | inhibition of growth at 10 µM (UO-31) [%] | inhibition of growth at 10 µM (SN12C) [%] | inhibition of growth at 10 µM (ACHN) [%] | inhibition of growth at 10 µM [1] [%] | inhibition of growth at 10 µM (OVCAR-5) [%] | inhibition of growth at 10 µM (OVCAR-4) [%] | inhibition of growth at 10 µM (IGROV-1) [%] | inhibition of growth at 10 µM (OVCAR-3) [%] | inhibition of growth at 10 µM (UACC-62) [%] | inhibition of growth at 10 µM (UACC-257) [%] | inhibition of growth at 10 µM (SK-MEL-28) [%] | inhibition of growth at 10 µM (SK-MEL-2) [%] | inhibition of growth at 10 µM (Malme-3M) [%] | inhibition of growth at 10 µM (SNB-75) [%] | inhibition of growth at 10 µM (SF-268) [%] | inhibition of growth at 10 µM (SW-620) [%] | other results
1 | O=c1oc2cc(NCCN3CCOCC3)ccc2cc1-c1nc2ccccc2[nH]1 | < 20 | < 20 | < 20 | < 20 | 34.3 | < 20 | < 20 | < 20 | < 20 | < 20 | < 20 | < 20 | < 20 | < 20 | < 20 | < 20 | < 20 | 22.9 | < 20 | < 20 | inhibition of growth at 10 µM (MDA-MB-468): < 20%; inhibition of growth at 10 µM (Hs-578T; read-out: GI): < 20%; inhibition of growth at 10 µM (A498; A498, 48 h, read-out: GI): < 20%; inhibition of growth at 10 µM (OVCAR-8): < 20%; inhibition of growth at 10 µM (M14): < 20%; inhibition of growth at 10 µM (HCT-15): < 20%; inhibition of growth at 10 µM (KM12): < 20%; inhibition of growth at 10 µM (HCC 2998; HCC 2998, 48 h, read-out: GI): < 20%; inhibition of growth at 10 µM (NCI-H226): < 20%; inhibition of growth at 10 µM (HOP-62): < 20%; inhibition of growth at 10 µM (HOP-92): 23.3%; inhibition of growth at 10 µM (MOLT-4): < 20%; inhibition of growth at 10 µM (K562): < 20%; inhibition of growth at 10 µM (CCRF-CEM): < 20%
2 | O=c1[nH]cc(F)c(=O)[nH]1 [FLUOROURACIL] | 56.7 | 37.8 | 78.1 | 58.2 | 41.3 | 54 | 39.3 | 47.6 | 44.3 | 59.4 | 51.2 | 47.4 | 39.7 | 33.7 | 19.5 | 95.5 | 58.2 | 65.9 | 59 | < 20 | growth inhibition (GI) (Hs-578T): Active; growth inhibition (GI) (A498): Active; inhibition of growth at 10 µM (HCT-15): 26.5%; inhibition of growth at 10 µM (KM12): 40.7%; growth inhibition (GI) (HCC 2998): Active; inhibition of growth at 10 µM (NCI-H226): 69.5%; inhibition of growth at 10 µM (HOP-62): 47.8%; inhibition of growth at 10 µM (HOP-92): 50.6%; inhibition of growth at 10 µM (SR): 24.8%; inhibition of growth at 10 µM (MOLT-4): 43.1%; inhibition of growth at 10 µM (K562): 42.3%; inhibition of growth at 10 µM (CCRF-CEM): 57.1%
